In ChEMBL document CHEMBL5465560, “Selectivity Literature for EUbOPEN Chemogenomic Library” (2024):

Columns and labels:
[1] = molecular target: Tyrosine-protein kinase Yes (Homo sapiens) (UniProt P07947); details: at 10 µM
[2] = molecular target: Mitogen-activated protein kinase 14 (Homo sapiens, UniProt Q16539); assay: Selectivity interaction (KinomeScan (DiscoverX)) EUB0000092b MAPK14; details: at 10 µM
[3] = molecular target: RAC-beta serine/threonine-protein kinase (Homo sapiens) (UniProt P31751); assay: Selectivity interaction (Upstate Kinase Profiler service (Millipore)) EUB0000056c AKT2; details: at 1 µM
[4] = molecular target: T1, Mitogen-activated protein kinase 12 (Homo sapiens) (UniProt P53778); assay: Selectivity interaction (ProQinase) EUB0000171b MAPK12
T1 sequence (whole entry): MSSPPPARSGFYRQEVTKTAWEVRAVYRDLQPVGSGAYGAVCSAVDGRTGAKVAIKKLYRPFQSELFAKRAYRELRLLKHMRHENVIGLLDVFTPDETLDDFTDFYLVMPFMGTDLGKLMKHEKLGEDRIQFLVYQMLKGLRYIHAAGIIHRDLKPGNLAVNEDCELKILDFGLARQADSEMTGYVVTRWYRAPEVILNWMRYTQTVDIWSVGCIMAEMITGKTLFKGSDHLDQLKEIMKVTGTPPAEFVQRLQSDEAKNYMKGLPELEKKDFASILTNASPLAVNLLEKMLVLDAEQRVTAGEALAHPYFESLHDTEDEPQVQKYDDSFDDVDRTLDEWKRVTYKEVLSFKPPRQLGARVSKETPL

[5] = molecular target: Calcium/calmodulin-dependent protein kinase type II subunit alpha (Homo sapiens, UniProt Q9UQM7); assay: Selectivity interaction (KinomeScan (DiscoverX)) EUB0001079a CAMK2A; details: at 1 µM
[6] = tested on: Receptor-type tyrosine-protein kinase FLT3 (Homo sapiens), P36888 [UNDEFINED MUTATION]; assay: Selectivity interaction (KinomeScan (DiscoverX)) EUB0001079a FLT3; details: at 1 µM
[7] = molecular target: Serine/threonine-protein kinase N2 (Homo sapiens, UniProt Q16513); assay: Selectivity interaction (KinomeScan (DiscoverX)) EUB0000666a PKN2; details: at 10 µM
[8] = molecular target: T2, Tyrosine-protein kinase ZAP-70 (Homo sapiens) (UniProt P43403); assay: Selectivity interaction (KinomeScan (DiscoverX)) EUB0000666a ZAP70; details: at 10 µM
T2 sequence (whole entry): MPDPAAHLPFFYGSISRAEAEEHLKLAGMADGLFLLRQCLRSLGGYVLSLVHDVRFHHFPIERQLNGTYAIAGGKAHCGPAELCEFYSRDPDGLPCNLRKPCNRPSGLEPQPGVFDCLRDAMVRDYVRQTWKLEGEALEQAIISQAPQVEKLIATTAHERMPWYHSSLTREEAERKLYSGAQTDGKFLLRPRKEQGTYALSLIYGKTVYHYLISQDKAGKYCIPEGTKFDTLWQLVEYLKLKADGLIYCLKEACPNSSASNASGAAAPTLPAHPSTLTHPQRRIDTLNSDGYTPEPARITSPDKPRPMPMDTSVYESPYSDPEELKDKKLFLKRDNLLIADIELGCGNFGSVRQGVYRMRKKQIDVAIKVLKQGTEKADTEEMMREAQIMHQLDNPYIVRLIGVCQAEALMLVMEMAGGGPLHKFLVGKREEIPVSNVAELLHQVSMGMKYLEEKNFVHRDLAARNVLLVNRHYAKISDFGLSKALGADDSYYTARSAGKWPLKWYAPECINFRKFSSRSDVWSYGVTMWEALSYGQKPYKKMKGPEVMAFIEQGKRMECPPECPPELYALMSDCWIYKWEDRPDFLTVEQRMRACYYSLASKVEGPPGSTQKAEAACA

[9] = molecular target: Histone-lysine N-methyltransferase 2A (Homo sapiens) (UniProt Q03164); assay: Selectivity interaction (Transferase panel (protein, RNA, and DNA methyltransferases. and EP300 (acetyltransferase))) EUB0000270b MLL
[10] = molecular target: Ribosomal protein S6 kinase alpha-2 (Homo sapiens) (UniProt Q15349); assay: Selectivity interaction (Kinase panel (Invitrogen)) EUB0000639a RPS6KA2; details: at 200 nM
[11] = molecular target: Epithelial discoidin domain-containing receptor 1 (Homo sapiens) (UniProt Q08345); assay: Selectivity interaction (KinomeScan (DiscoverX)) EUB0000607a DDR1; details: at 10 µM
[12] = molecular target: Wee1-like protein kinase (Homo sapiens) (UniProt P30291); assay: Selectivity interaction (KinomeScan (DiscoverX)) EUB0000695a WEE1; details: at 100 nM
[13] = molecular target: Substance-P receptor (Homo sapiens) (UniProt P25103); assay: Selectivity interaction (Eurofins CEREP Diversity Profile (receptors and ion channels)) EUB0000279b TACR1; details: at 10 µM
[14] = molecular target: T3, Phosphatidylinositol 4,5-bisphosphate 3-kinase catalytic subunit delta isoform (Homo sapiens) (UniProt O00329); assay: Selectivity interaction (Ambit KINOMEscan and KiNATiv profiling in Jurkat cells) EUB0000090b PIK3CD; type: cell-based; details: at 1 µM
T3 sequence (whole entry): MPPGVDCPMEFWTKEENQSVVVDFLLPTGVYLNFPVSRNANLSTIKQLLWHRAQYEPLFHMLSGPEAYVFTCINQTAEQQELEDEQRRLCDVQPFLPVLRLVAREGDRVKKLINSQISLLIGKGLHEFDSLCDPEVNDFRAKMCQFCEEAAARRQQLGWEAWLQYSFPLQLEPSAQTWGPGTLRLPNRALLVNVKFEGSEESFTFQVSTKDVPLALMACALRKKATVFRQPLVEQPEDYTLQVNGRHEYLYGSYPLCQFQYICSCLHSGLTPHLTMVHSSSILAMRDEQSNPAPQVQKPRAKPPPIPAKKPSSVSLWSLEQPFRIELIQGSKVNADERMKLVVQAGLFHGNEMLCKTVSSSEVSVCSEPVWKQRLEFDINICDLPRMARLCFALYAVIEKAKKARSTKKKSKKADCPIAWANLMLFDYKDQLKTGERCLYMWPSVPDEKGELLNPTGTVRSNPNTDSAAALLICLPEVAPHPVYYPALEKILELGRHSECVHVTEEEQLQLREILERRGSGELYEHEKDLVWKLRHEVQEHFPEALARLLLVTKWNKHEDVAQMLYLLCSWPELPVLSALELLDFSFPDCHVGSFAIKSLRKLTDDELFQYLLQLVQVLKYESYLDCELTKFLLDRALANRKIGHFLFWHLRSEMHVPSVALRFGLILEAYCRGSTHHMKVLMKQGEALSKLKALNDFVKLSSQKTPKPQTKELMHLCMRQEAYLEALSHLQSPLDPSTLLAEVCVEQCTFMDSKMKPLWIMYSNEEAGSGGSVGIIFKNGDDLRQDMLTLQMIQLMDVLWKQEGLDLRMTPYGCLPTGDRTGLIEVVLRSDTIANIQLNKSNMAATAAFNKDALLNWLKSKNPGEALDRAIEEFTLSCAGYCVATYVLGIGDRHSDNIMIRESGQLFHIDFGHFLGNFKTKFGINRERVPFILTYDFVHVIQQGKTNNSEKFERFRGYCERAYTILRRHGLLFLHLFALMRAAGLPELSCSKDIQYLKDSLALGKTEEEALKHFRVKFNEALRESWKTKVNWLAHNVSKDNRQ

Chain of Histone-lysine N-methyltransferase 2A (Homo sapiens) (Q03164 1-2718 limits assumed): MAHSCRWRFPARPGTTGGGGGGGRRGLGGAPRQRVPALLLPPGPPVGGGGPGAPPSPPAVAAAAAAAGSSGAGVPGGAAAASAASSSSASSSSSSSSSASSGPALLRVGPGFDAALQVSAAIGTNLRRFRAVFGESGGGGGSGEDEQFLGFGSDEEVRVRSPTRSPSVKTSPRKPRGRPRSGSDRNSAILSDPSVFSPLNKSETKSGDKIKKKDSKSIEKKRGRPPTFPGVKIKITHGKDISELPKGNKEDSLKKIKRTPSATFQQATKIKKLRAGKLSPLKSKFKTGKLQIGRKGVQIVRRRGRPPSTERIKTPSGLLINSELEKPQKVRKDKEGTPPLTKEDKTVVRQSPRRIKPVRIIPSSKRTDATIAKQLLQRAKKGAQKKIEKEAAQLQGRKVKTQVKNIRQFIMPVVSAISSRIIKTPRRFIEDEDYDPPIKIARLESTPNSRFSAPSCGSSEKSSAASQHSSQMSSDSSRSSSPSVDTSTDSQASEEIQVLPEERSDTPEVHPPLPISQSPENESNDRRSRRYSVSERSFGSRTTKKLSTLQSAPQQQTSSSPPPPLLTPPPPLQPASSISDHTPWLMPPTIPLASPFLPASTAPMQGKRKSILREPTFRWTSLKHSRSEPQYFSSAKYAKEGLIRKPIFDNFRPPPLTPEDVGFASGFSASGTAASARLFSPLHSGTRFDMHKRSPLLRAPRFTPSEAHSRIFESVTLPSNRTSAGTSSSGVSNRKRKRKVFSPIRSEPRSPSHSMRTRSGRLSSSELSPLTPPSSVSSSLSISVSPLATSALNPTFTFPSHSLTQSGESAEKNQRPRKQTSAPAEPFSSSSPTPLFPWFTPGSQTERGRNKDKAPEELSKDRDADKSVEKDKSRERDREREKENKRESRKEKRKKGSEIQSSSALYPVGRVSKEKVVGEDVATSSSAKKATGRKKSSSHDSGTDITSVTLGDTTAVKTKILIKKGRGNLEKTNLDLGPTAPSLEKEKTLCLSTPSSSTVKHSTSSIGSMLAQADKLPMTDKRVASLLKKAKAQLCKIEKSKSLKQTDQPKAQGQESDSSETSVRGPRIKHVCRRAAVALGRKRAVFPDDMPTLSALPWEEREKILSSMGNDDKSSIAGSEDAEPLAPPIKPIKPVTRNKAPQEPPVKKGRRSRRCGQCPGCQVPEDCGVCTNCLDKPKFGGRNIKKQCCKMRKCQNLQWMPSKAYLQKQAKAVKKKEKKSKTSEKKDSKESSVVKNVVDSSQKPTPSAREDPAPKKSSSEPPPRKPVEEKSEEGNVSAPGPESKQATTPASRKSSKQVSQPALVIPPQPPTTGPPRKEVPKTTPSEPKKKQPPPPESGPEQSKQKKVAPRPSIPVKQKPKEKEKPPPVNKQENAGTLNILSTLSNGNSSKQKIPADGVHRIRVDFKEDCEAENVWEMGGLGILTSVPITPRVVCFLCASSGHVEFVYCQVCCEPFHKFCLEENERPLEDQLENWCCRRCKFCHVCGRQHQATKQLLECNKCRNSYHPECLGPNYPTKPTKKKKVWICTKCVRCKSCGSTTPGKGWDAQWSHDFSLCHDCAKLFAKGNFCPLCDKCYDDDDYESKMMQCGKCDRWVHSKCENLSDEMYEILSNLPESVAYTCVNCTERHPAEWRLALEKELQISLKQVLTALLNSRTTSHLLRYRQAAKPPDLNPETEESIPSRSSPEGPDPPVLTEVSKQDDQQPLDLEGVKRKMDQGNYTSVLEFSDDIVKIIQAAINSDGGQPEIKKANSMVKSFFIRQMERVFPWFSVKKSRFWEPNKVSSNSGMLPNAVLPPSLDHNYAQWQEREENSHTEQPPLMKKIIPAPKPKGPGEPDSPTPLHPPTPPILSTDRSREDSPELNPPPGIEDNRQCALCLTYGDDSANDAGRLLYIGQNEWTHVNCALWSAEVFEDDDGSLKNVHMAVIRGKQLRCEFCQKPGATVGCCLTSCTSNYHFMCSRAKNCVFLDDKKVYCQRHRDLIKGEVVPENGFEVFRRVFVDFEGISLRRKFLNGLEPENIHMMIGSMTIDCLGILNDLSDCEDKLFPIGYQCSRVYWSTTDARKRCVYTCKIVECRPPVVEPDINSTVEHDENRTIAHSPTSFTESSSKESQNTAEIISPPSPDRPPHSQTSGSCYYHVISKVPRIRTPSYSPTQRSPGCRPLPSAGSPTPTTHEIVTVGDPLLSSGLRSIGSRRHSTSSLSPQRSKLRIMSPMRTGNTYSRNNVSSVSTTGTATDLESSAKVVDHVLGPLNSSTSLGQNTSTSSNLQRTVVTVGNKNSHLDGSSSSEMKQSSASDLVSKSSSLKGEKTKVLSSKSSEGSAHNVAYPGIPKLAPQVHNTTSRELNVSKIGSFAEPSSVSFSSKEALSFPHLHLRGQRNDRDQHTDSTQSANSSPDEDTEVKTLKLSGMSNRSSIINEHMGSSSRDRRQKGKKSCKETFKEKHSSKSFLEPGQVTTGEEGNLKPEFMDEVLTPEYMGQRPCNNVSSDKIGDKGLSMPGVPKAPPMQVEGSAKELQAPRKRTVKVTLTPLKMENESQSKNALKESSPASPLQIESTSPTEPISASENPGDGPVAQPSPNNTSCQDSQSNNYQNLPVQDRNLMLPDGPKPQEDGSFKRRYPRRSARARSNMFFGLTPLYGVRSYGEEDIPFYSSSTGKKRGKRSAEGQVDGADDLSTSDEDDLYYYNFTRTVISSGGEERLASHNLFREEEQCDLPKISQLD
Chain of Histone-lysine N-methyltransferase 2A (Homo sapiens) (Q03164 2719-3969 limits assumed): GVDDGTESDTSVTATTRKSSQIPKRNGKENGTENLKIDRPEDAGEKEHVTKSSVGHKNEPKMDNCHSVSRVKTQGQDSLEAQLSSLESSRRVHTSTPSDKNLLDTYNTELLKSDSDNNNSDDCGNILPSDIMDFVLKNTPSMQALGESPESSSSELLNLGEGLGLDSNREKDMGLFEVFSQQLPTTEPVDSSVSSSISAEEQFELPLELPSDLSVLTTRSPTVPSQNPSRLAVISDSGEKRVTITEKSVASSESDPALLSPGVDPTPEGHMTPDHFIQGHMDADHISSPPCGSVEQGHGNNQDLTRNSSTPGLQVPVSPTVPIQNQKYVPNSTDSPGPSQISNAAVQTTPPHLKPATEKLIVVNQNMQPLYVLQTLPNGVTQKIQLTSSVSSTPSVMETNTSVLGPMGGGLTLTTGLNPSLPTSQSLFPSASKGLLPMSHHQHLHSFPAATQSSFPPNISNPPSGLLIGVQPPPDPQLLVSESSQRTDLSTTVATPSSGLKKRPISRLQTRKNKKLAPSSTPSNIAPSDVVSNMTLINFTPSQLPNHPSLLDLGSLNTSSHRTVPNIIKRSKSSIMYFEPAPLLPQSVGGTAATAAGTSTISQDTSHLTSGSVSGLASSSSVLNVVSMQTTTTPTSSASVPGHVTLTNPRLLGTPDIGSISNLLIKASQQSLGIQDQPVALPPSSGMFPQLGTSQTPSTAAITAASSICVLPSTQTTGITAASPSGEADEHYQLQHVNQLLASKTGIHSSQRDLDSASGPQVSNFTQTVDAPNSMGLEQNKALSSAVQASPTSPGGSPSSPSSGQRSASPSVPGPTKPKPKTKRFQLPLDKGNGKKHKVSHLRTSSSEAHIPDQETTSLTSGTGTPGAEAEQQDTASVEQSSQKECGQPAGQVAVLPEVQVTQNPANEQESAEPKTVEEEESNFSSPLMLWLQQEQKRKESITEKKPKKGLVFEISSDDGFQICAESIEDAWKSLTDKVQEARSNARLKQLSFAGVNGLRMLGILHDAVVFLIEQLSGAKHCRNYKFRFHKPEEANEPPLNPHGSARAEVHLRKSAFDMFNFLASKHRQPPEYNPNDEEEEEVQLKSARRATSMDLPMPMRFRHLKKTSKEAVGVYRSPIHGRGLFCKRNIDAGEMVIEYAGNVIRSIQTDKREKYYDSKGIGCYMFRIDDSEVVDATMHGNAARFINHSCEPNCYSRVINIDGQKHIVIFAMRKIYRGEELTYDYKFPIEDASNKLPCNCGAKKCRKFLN
Chain of Receptor-type tyrosine-protein kinase FLT3 (Homo sapiens), P36888 [UNDEFINED MUTATION] (P36888 whole entry, looked up, change not shown): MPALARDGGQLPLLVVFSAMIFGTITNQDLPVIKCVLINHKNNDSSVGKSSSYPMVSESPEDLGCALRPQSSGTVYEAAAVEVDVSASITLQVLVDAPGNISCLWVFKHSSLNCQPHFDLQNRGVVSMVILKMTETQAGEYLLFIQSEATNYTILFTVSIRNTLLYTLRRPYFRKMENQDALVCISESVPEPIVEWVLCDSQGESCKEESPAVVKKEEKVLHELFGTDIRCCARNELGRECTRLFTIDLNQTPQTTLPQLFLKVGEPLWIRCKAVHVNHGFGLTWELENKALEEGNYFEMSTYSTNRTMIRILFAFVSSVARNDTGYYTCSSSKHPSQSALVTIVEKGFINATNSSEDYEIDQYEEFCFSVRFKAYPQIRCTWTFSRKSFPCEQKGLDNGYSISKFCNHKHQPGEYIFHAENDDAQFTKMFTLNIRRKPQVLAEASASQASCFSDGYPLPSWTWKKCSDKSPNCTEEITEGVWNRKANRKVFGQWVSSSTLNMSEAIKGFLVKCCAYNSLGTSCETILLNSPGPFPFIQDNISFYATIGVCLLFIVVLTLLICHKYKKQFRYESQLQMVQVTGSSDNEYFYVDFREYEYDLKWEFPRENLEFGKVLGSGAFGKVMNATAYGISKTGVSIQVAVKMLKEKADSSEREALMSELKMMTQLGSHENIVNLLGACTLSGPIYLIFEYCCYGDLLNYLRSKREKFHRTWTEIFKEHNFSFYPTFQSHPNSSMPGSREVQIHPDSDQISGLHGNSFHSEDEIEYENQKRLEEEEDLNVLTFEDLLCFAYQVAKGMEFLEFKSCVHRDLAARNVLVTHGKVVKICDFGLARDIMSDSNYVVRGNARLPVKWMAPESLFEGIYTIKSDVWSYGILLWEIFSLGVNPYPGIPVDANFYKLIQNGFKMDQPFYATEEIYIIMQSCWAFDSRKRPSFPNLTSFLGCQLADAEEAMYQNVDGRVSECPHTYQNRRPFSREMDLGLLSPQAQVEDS

Compound: CCN(CC)CCCCNc1ncc2cc(-c3cc(OC)cc(OC)c3)c(NC(=O)NC(C)(C)C)nc2n1
- % of control [1]: 100%

Compound: CCC(=O)N1CCN(c2ccc(-n3c(=O)ccc4cnc5ccc(-c6cnc7ccccc7c6)cc5c43)cc2C(F)(F)F)CC1
- % of control [2]: 90%

Compound: Cc1ccc(-c2ccc3c(ccc4sc5c(c43)NC[C@@H](C)NC5=O)n2)cn1
- % of inhibition [3]: -9%

Compound: C=CC(=O)Nc1cccc(C(=O)Nc2ccc(Nc3cc(-c4[nH]c(SC)nc4C)ccn3)cc2)c1
- % of control ([4]; at 1 µM): 94%
- % of control ([4]; at 5 µM): 87%

Compound: Nc1cnc(N2CCc3cc(S(=O)(=O)Nc4c(F)cc(Cl)cc4F)cc(N4CCCC4=O)c32)nc1 [TP-020n]
- % of control [5]: 92%
- % of control [6]: 100%

Compound: O=C(NOC[C@H](O)CO)c1ccc(F)c(F)c1Nc1ccc(I)cc1F
- % of control [7]: 100%
- % of control [8]: 89%

Compound: Cc1cc(CN)cc(C)c1-c1ncn(C)c1-c1cncn1C
- % activity ([9]; at 1 µM): > 90%
- % activity ([9]; at 10 µM): > 80%

Compound: CC[C@@H]1[C@H](F)C(=O)N[C@@H]1COc1nccc2cc(C(N)=O)c(OC)cc12 [ZIMLOVISERTIB]
- % of inhibition [10]: -0.472%

Compound: CNC(=O)Nc1ccc(-c2nc(N3CC4CCC(C3)O4)c3cnn(C4CCC5(CC4)OCCO5)c3n2)cc1
- % of control [11]: 66%

Compound: Cc1cc(F)c(C(=O)Nc2cccc(-c3nncn3C(C)C)n2)cc1-n1cnc(C2CC2)c1
- % of control [12]: 100%

Compound: CC(=O)c1cc(-c2ccccc2OCC2CC2)c2ncccn12
- % of control [13]: 72%

Compound: CN(C)C/C=C/C(=O)Nc1ccc(C(=O)N2CCCC(Nc3ncc(Cl)c(-c4c[nH]c5ccccc45)n3)C2)cc1 (stereo unspecified)
- % of control [14]: 100%
